Test results from US20090156645A1, “Method for Increasing the Susceptibility of Peptide Deformylase Inhibitors by Using Efflux Pump Inhibitors” (priority 2004, published 2009).
In brackets after ≈: the same amount, converted by molar mass. Like-named read-outs stand apart in the source and are kept apart here. Where a SMILES comes first, the peptide text is derived from it. The star is where a group is joined. βNA = c1ccc2cc(N*)ccc2c1

How the values were obtained:
[1] = system: H. influenzae NB65044-CDS0011; assay: Potentiation of antibiotic MIC by efflux inhibitor (two-axis 96-well plates); type: cell-based, Haemophilus influenzae; settings: H. influenzae overexpressing AcrAB; data not shown
Experimental: H. influenzae NB65044-CDS0011 is used for H. influenzae testing. This strain has increased pump expression which is thought to result in more sensitive detection of pump inhibition.
H. influenzae: MIC determinations are conducted in 96 well sterile plates with a range of LBM415 along one axis and range of efflux inhibitor along the other axis. Medium used is HTM (Remel). Inoculum is set to approximately […] bacteria per well using the BBL prompt system.

[2] = system: E. coli strain NB27006 complemented with H. influenzae acrAB genes; assay: Potentiation of antibiotic MIC by efflux inhibitor in E. coli carrying the H. influenzae acrAB genes; type: cell-based, Escherichia coli; settings: E. coli complemented in trans with H. influenzae acrAB genes
Experimental: (§1) For E. coli testing, strain NB27006 is used. This strain is deficient in its native AcrAB pump (described in H Okusu et al. J. Bacteriol. 1996 178: 306-308) and is a suitable host for cloning the H. influenzae acrAB pump genes.
(§2) E. coli: MIC determines are conducted as described above except using Mueller-Hinton test medium.
Genes encoding H. influenzae AcrAB pump components are PCR amplified from NB65044 genomic DNA using the primers acrA prom F1 (5′-AATTA[…]-3′) (SEQ ID NO. 11) and acrBR3 […] 5′-[…]-3″) (SEQ ID NO. 12). The acrAB containing product is cloned into Topo PCR2.1 (Invitrogen) and transformed into Top10 competent cells (Invitrogen). An insert bearing plasmid is isolated and sequenced to ensure that mutations are not introduced during PCR and cloning. This plasmid is then transformed into E. coli strain NB27006, which lacks its native AcrAB-ToIC pump function.
Since efflux pumps are impacted by such factors as outer membrane permeability, and E. coli is thought to have a less permeable outer membrane than H. influenzae (possibly accounting for increased impact of efflux on drug resistance), it has reasoned that the detection of H. influenzae AcrAB pump inhibition might be more sensitive in an E. coli background. […] This is interesting in that the native E. coli AcrAB-ToIC pump does extrude tetracycline.

H. influenzae = assay: microbe, parasite or virus in culture; type: cell-based, Haemophilus influenzae; settings: for effect of insertional inactivation of acrB on susceptibility: laboratory strain NB65044; for effect of inactivation of HI1462 on susceptibility: H. influenzae NB65044; for MIC: Haemophilus influenzae
Experimental: L-broth or L-agar (Difco) is used for routine growth of Escherichia coli (E. coli). Chocolate agar plates (Remel) are used for routine growth of H. influenzae. Brain heart infusion broth (Remel) supplemented with 10 μg/mL of β-NAD (Fluka) and 10 μg/mL hemin/vitamin K solution (sBHI) (Remel) is used for liquid broth cultivation of H. influenzae. For induction of natural competence in H. influenzae, nutritional downshift is induced using M-IV medium as described previously. See Poje and Redfield, Methods Mol Med, Vol. 71, No., pp. 57-70 (2003). Kanamycin is added to growth media at 50 μg/mL (E. coli) or 5 μg/mL (H. influenzae) as required.
Antibiotic and substrate MICs are determined by broth microdilution using 2-fold dilution in HTM in accordance with the procedures established by the National Committee for Clinical Laboratory Standards (NCCLS). See NCCLS, Approved standard M7-A5, Wayne, Pa. (2003). PDF inhibitors are synthesized at the Novartis Institutes for BioMedical Research, Cambridge, Mass. All remaining antibiotics are obtained from Sigma (St. Louis, Mo.).

E. coli = assay: MIC of LBM415 in E. coli with or without AcrAB-TolC pump function; type: cell-based; settings: Escherichia coli
Experimental: as §1, §2
12). The acrAB containing product is cloned into Topo PCR2.1 (Invitrogen) and transformed into Top10 competent cells (Invitrogen). An insert bearing plasmid is isolated and sequenced to ensure that mutations are not introduced during PCR and cloning. This plasmid is then transformed into E. coli strain NB27006, which lacks its native AcrAB-ToIC pump function.
To further examine this, the H. influenzae acrAB genes are cloned and used to complement, in trans, an AcrAB pump deficiency in E. coli strain NB27006.

[3] = strain NB65016 (clinical isolate), read-out: MIC
[4] = strain NB65016-CDS0004, knockout acrB
[5] = strain NB65027 (clinical isolate), read-out: MIC
[6] = strain NB65027-CDS0003, knockout HI1462
[7] = strain NB65027-CDS0021, knockout acrB
[8] = strain NB65044 (Rd KW20, parent laboratory strain), read-out: MIC
[9] = strain NB65044-CDS0001 (NB65044 acrB::Km)
[10] = strain NB65044-CDS0020 (Table 1: NB65044 acrB::Km)
[11] = strain NB65051 (clinical isolate), read-out: MIC
[12] = strain NB65051-CDS0002, knockout acrB
[13] = strain NB65051-CDS0022, knockout HI1462
[14] = strain NB65063 (clinical isolate), read-out: MIC
[15] = strain NB65063-CDS0005, knockout acrB
[16] = strain NB65069 (clinical isolate), read-out: MIC
[17] = strain NB65069-CDS0007, knockout acrB
[18] = strain NB65076 (clinical isolate), read-out: MIC
[19] = strain NB65076-CDS0006, knockout acrB

Structure (SMILES) | potentiation of LBM415 activity [1] | potentiation of clindamycin [1] | effect of insertional inactivation of acrB on susceptibility (H. influenzae) | effect of inactivation of HI1462 on susceptibility (H. influenzae) | MIC (H. influenzae; [3]) [µg/mL] | MIC (H. influenzae; [4]) [µg/mL] | MIC (H. influenzae; [5]) [µg/mL] | MIC (H. influenzae; [6]) [µg/mL] | MIC (H. influenzae; [7]) [µg/mL] | MIC (H. influenzae; [8]) [µg/mL] | MIC (H. influenzae; [9]) [µg/mL] | MIC (H. influenzae; [10]) [µg/mL] | MIC (H. influenzae; [11]) [µg/mL] | MIC (H. influenzae; [12]) [µg/mL] | MIC (H. influenzae; [13]) [µg/mL] | MIC (H. influenzae; [14]) [µg/mL] | MIC (H. influenzae; [15]) [µg/mL] | MIC (H. influenzae; [16]) [µg/mL] | MIC (H. influenzae; [17]) [µg/mL] | MIC (H. influenzae; [19]) [µg/mL] | also measured
N=C(N)NCCC[C@H](NC(=O)[C@@H](N)Cc1ccccc1)C(=O)Nc1ccc2ccccc2c1 [MC-207,110] (H-Phe-Arg-βNA) | potentiation | potentiate | – | – | – | – | – | – | – | – | – | – | – | – | – | – | – | – | – | – | potentiation of tetracycline (pump non-substrate) [1]: no potentiation; potentiation of LBM415 [2]: potentiating activity; potentiation of clindamycin [2]: potentiating activity; potentiation of tetracycline [2]: no potentiation
O=C(N[C@H](CO)[C@H](O)c1ccc([N+](=O)[O-])cc1)C(Cl)Cl [chloramphenicol] | – | – | unaffected | – | – | – | – | – | – | – | – | – | – | – | – | – | – | – | – | – | –
CC[C@H]1OC(=O)[C@H](C)[C@@H](O[C@H]2C[C@@](C)(OC)[C@@H](O)[C@H](C)O2)[C@H](C)[C@@H](O[C@@H]2O[C@H](C)C[C@H](N(C)C)[C@H]2O)[C@](C)(O)C[C@@H](C)C(=O)[C@H](C)[C@@H](O)[C@]1(C)O [ERM, erythromycin] | – | – | increases susceptibility | increases susceptibility | 16 (≈ 21.8 µM) | 0.25 (≈ 0.341 µM) | 16 (≈ 21.8 µM) | 0.125 (≈ 0.17 µM) | 0.25 (≈ 0.341 µM) | 4 (≈ 5.45 µM) | 0.25 (≈ 0.341 µM) | 0.25 (≈ 0.341 µM) | 16 (≈ 21.8 µM) | 0.25 (≈ 0.341 µM) | 0.125 (≈ 0.17 µM) | 8 (≈ 10.9 µM) | 0.25 (≈ 0.341 µM) | 16 (≈ 21.8 µM) | 0.125 (≈ 0.17 µM) | 0.125 (≈ 0.17 µM) | MIC (H. influenzae; [18]): 16 µg/mL (≈ 21.8 µM)
CCCC[C@H](CN(O)C=O)C(=O)N1CCC[C@H]1C(=O)Nc1ccc(F)c[n+]1[O-] [LBM415] | – | – | significantly increases susceptibility | increases susceptibility | 16 (≈ 40.4 µM) | 0.25 (≈ 0.631 µM) | 32 (≈ 80.7 µM) | 0.5 (≈ 1.26 µM) | 0.5 (≈ 1.26 µM) | 4 (≈ 10.1 µM) | 0.25 (≈ 0.631 µM) | 0.125 (≈ 0.315 µM) | 32 (≈ 80.7 µM) | 0.25 (≈ 0.631 µM) | 0.25 (≈ 0.631 µM) | 32 (≈ 80.7 µM) | 1 (≈ 2.52 µM) | 16 (≈ 40.4 µM) | 0.25 (≈ 0.631 µM) | 0.25 (≈ 0.631 µM) | MIC (H. influenzae; strain NB65062 (clinical isolate, hyper-susceptible, acrA deletion), read-out: MIC): ≤ 0.25 µg/mL; MIC (H. influenzae; strain NB65062-CDS0037 (NB65062 complemented for acrA deficiency), read-out: MIC): 8 µg/mL (≈ 20.2 µM); MIC (H. influenzae; strain NB65062-CDS0038 (NB65062 complemented for acrA deficiency), read-out: MIC): 8 µg/mL (≈ 20.2 µM); MIC (H. influenzae; [18]): 16 µg/mL (≈ 40.4 µM); decrease in susceptibility (H. influenzae; acrR insertionally inactivated in NB65044 (NB65044-CDS0008) versus parent): 2 fold; decrease in susceptibility (H. influenzae; two acrR mutants of NB65044 selected on 8 μg/mL LBM415 versus parent): 8 fold; MIC (E. coli; E. coli strain NB27006 complemented with the H. influenzae acrAB genes): 32 µg/mL; MIC (E. coli; E. coli strains deficient in AcrAB-ToIC pump function, typical value): ~1 µg/mL; MIC (E. coli; E. coli with native AcrAB-ToIC pump, typical value): ≥ 128 µg/mL
CN(C)[C@@H]1C(O)=C(C(N)=O)C(=O)[C@@]2(O)C(O)=C3C(=O)c4c(O)cccc4[C@@](C)(O)[C@H]3C[C@@H]12 [TET, tetracycline] | – | – | – | – | – | 1 (≈ 2.25 µM) | – | 1 (≈ 2.25 µM) | 0.5 (≈ 1.13 µM) | – | 0.5 (≈ 1.13 µM) | 1 (≈ 2.25 µM) | – | 1 (≈ 2.25 µM) | 1 (≈ 2.25 µM) | – | 1 (≈ 2.25 µM) | – | 1 (≈ 2.25 µM) | 1 (≈ 2.25 µM) | MIC (H. influenzae; strain NB65044-CDS0008, knockout acrR): 0.5 µg/mL (≈ 1.13 µM); MIC (H. influenzae; strain NB65044-CDS0011 (acrR mutant selected on 8 μg/mL LBM415, stop codon)): 1 µg/mL (≈ 2.25 µM); MIC (H. influenzae; strain NB65044-CDS0014 (acrR mutant selected on 8 μg/mL LBM415, L→P)): 1 µg/mL (≈ 2.25 µM)
COC(=O)[C@H]1[C@H]2C[C@@H]3c4[nH]c5cc(OC)ccc5c4CCN3C[C@H]2C[C@@H](OC(=O)c2cc(OC)c(OC)c(OC)c2)[C@@H]1OC [Reserpine] | did not potentiate | did not potentiate | – | – | – | – | – | – | – | – | – | – | – | – | – | – | – | – | – | – | –
